Laboratory results as given in patent US20220340983A1, “SYSTEMS AND ASSAYS FOR IDENTIFYING PU.1 INHIBITORS” (Massachustts Institute of Technology, priority 2019, published 2022).

How the values were obtained:
[1] = test system: PU.1 dependent gene expression; assay: RT-qPCR of mRNA levels in BV2 PU.1-Luciferase cells (validation round 3); type: cell-based, mouse; conditions: 2-day treatment
iPSC-microglia [2] = assay: Cell viability in iPSC-microglia; type: cell-based, human
Method: (§1) FIGS. 10A-10D show anti-inflammatory properties of A11 after IFNγ treatment on human induced pluripotent stem cell derived microglia. Cell viability is shown in FIG. 10A as measured with CellTiter Glo (Promega) in untreated (vehicle), A11 (2.5 μM) treated, IFNγ (25 ng/mL) treated and A11 +IFNγ treated cells. The morphology (round represent un-activated and elongated, filamentous represent activated by IFNγ) of these same conditions is shown in FIGS. 10B and quantified in FIG. 10C.
(§2) Human induced pluripotent stem cell derived microglia (iPSC-microglia) were activated with IFN-gamma (25 ng/mL, 3 days) and co-treated with A11 (2.5 μM, 2 days).
A concentration response curve was performed for cell viability and myelin uptake (FIG. 12A) in iPSC-microglia. Myelin uptake was measured by uptake of pHrodo-GFP-labelled wild-type mouse myelin particles (FIG. 12B). […] The IC50s obtained for these assays was in the low nM range, matching the data obtained in BV2 cells.

iPSC-microglia [3] = assay: mRNA expression (RTqPCR) in IFN-gamma activated iPSC-microglia; type: cell-based, human; conditions: IFN-gamma 25 ng/mL 3 days, co-treated with A11 2.5 μM 2 days
Method: as §1, §2

iPS and ES-microglia [4] = assay: Intracellular neutral lipid accumulation (BODIPY staining) in microglia; type: cell-based, human
Method: (§3) Top row: Effect of a 2-day treatment with DPBS (10 μL/mL), IFNγ (25 ng/mL), TNFα (25 ng/mL), TGFβ (25 ng/mL), IL1β (25 ng/mL), LPS (25 ng/mL), ATP (100 nM), CD200 (100 ng/mL), IFNα (25 ng/mL), IL12 (5 ng/mL), CX3CL1 (100 ng/mL), CCL5 (100 ng/mL), PMA (10 ng/mL), IFNβ (10 ng/mL), IL33 (10 ng/mL), and IL4 (100 ng/mL). n=52 for DPBS, n=9 for all other inflammatory molecules, except IL33 where n=3. Bottom row: effect after co-application with A11 (20 nM). Scale bar 10 μm. […] Student's unpaired, two sided t-test, ****P≤0.0001, ***P≤0.001, **P≤0.01, *P≤0.05. […] Top row: An increase in number of cells per well with ≥2 BODIPY-positive structures was observed after a 2-day treatment with IFNγ (25 ng/mL), TNFα (25 ng/mL) and IL33 (10 ng/mL) as compared to DPBS treatment. […] Student's unpaired, two-sided t-test, ***P≤0.001, **P≤0.01, *P≤0.05. […] A 2-day treatment with IFNγ (25 ng/mL) caused increase in ATP levels that was reversed by A11 (20 nM) treatment in iPS (left panel) and ES-microglia (right panel). Student's unpaired, twosided t-test, **P≤0.01. […]
(§4) FIGS. 17A-17H show results from comparing the effects of multiple inflammatory molecules in iPS-microglia. […] Quantification based on total Vybrant DiI-positive surface area divided by number of Hoechst positive cells per field of view. […]

iPS and ES-microglia [5] = assay: ELISA for IL1β in microglia supernatant; type: cell-based, human
iPS and ES-microglia [6] = assay: Average cell size (Vybrant DiI-positive surface area per Hoechst-positive cell) in microglia; type: cell-based, human; conditions: A11 alone ≤20 nM
Method: as §3, §4

multiple cell lines = assay: Time course of A11 efficacy after application; type: cell-based; conditions: A11 obtained from several vendors
Source text: The gene modulation was reproduced in unmodified BV2 cells and primary mouse microglia. FIG. 14B: Concentration-response curve of A11 from multiple vendors, measured as percent reduction of luminescence. Non-linear fit with Hill's equation with baseline fixed to 0. FIG. 14C: Time course for reduction of mRNA levels of luciferase and il1β as well as luminescence emission in BV2 PU.1-Luciferase cells. FIGS. 14D-14E: Time and concentration-response curve (of pHrodo-labelled particles) for uptake of pHrodo-labelled Zymosan A (FIG. 14D) and mouse myelin in (FIG. 14E) in BV2 cells (left panels, respectively in each FIGS. 14D-14E), and iPS-microglia (right panels, respectively in each FIGS. 14D-14E). FIGS.: 14F-14G: Time and concentration-response curves of A11 (FIG. 14F) and DB2313 (FIG. 14G) of Zymosan A uptake in BV2 cells. Left, middle, and right panels show 1, 2 and 3 hours after compound application, respectively. ANOVA followed by Dunnett's post hoc test versus vehicle, black bars indicate P≤0.05.

[7] = concentration response curve, iPSC-microglia, after 48 h

## O=S(=O)(NCc1ccncc1)c1ccc(C2CCCCC2)cc1 [Compound A11]
[1]
  mRNA levels Apoe: 1.522 multiples of 1×
  mRNA levels IL1β: 0.418 multiples of 1×
  mRNA levels Lucif.: 0.376 multiples of 1×
  mRNA levels Spi1: 1.001 multiples of 1×
  mRNA levels Trem2: 2.051 multiples of 1×
  mRNA levels Tyrobp: 2.101 multiples of 1×
iPSC-microglia [2]; IFN-gamma 25 ng/mL 3 days, co-treated with A11 2.5 μM 2 days
  cell viability (CellTiter Glo): No significant change
iPSC-microglia [2]; [7]
  IC50 of cell viability: low nM range
  reduction in cell viability: weak reduction
iPSC-microglia [3]
  CCL2 mRNA expression levels: reversal of IL1-beta and CCL2 increases to vehicle treated levels
  IL1-beta mRNA expression levels: reversal of IL1-beta and CCL2 increases to vehicle treated levels
iPS and ES-microglia [4]; A11 alone <20 nM, iPS and ES-microglia
  number of cells containing ≥2 BODIPY-positive structures: no effect
iPS and ES-microglia [4]; iPS-microglia, 2-day treatment with IFNγ, TNFα or IL33 plus A11
  number of cells with ≥2 BODIPY-positive structures, increase by inflammatory molecules: reversed this increase
iPS and ES-microglia [5]; 2-day IFNγ 25 ng/mL plus A11 20 nM, iPS and ES-microglia
  supernatant IL1β levels, increase by IFNγ: reversed
iPS and ES-microglia [5]; A11 alone 20nM, 2-day treatment
  IL1β concentration in the supernatant: did not affect
iPS and ES-microglia [6]
  average cell size versus DPBS treatment: no effects
Multiple cell lines
  time after application at which efficacy starts: 3 h
